Test results: patent US11401555B2, “Genetic polymorphisms associated with stroke, methods of detection and uses thereof” (CELERA CORPORATION, priority 2008, dated 2022)

Assay: Stroke statin response (SSR) in the CARE pravastatin trial: pravastatin-treated versus placebo-treated, by SNP genotype
Type: in vivo, human
Conditions: CARE; for HR: pravastatin vs placebo; for HR (hazard ratio for stroke, pravastatin vs placebo): rs10757274 (hCV26505812), placebo = ref; for EVENTS (number of stroke events): rs10757274, pravastatin arm; for EVENTS: stroke events in pravastatin arm

Molecule `CC[C@H](C)C(=O)O[C@H]1C[C@H](O)C=C2C=C[C@H](C)[C@H](CC[C@@H](O)C[C@@H](O)CC(=O)O)[C@H]21` [pravastatin] has an HR (hCV945276 rs89962 KRT4, DOM, genotype TG + TT, 95% CL 0.48-1.027, p 0.0683) of 0.7, an HR (hCV945276 rs89962 KRT4, GEN, genotype GG, 95% CL 0.349-1.196, p 0.1641) of 0.65 and an HR (hCV945276 rs89962 KRT4, GEN, genotype TG, 95% CL 0.423-0.979, p 0.0397) of 0.64. It also gave an HR (hCV945276 rs89962 KRT4, GEN, genotype TT, 95% CL 0.392-2.375, p 0.9381) of 0.96, an HR (hCV945276 rs89962 KRT4, REC, genotype TG + GG, 95% CL 0.458-0.916, p 0.0141) of 0.65 and an HR (hCV1022614 rs220479 ITGAE, DOM, genotype CT + CC, 95% CL 0.541-1.024, p 0.0696) of 0.74. It also gave an HR (hCV1022614 rs220479 ITGAE, GEN, genotype CC, 95% CL 0.609-1.295, p 0.5366) of 0.89, an HR (hCV1022614 rs220479 ITGAE, GEN, genotype CT, 95% CL 0.257-0.887, p 0.0192) of 0.48 and an HR (hCV1022614 rs220479 ITGAE, GEN, genotype TT, 95% CL 0.203-4.047, p 0.8969) of 0.91. It also gave an HR (hCV1022614 rs220479 ITGAE, REC, genotype CT + TT, 95% CL 0.294-0.921, p 0.0248) of 0.52, an HR (hCV2091644 rs1010 VAMP8, DOM, genotype CT + CC, 95% CL 0.507-1.126, p 0.1678) of 0.76 and an HR (hCV2091644 rs1010 VAMP8, GEN, genotype CC, 95% CL 0.51-2.73, p 0.6997) of 1.18. For the same molecule, the HR (hCV2091644 rs1010 VAMP8, GEN, genotype CT, 95% CL 0.418-1.045, p 0.0763) was 0.66, the HR (hCV2091644 rs1010 VAMP8, GEN, genotype TT, 95% CL 0.43-1.186, p 0.1928) was 0.71 and the HR (hCV2091644 rs1010 VAMP8, REC, genotype CT + TT, 95% CL 0.487-0.961, p 0.0284) was 0.68. It also gave an HR (hCV2169762 rs1804689 HPS1, DOM, genotype TG + TT, 95% CL 0.612-1.461, p 0.8004) of 0.95, an HR (hCV2169762 rs1804689 HPS1, GEN, genotype GG, 95% CL 0.372-0.924, p 0.0214) of 0.59 and an HR (hCV2169762 rs1804689 HPS1, GEN, genotype TG, 95% CL 0.583-1.468, p 0.7398) of 0.92. The HR (hCV2169762 rs1804689 HPS1, GEN, genotype TT, 95% CL 0.266-3.694, p 0.9903) was 0.99, the HR (hCV2169762 rs1804689 HPS1, REC, genotype TG + GG, 95% CL 0.529-1.006, p 0.0547) was 0.73 and the HR (hCV2192261 rs3213646 EXOD1, DOM, genotype CT + CC, 95% CL 0.506-1.048, p 0.0882) was 0.73. The HR (hCV2192261 rs3213646 EXOD1, GEN, genotype CC, 95% CL 0.613-1.799, p 0.8592) was 1.05, the HR (hCV2192261 rs3213646 EXOD1, GEN, genotype CT, 95% CL 0.328-0.898, p 0.0175) was 0.54 and the HR (hCV2192261 rs3213646 EXOD1, GEN, genotype TT, 95% CL 0.316-1.278, p 0.2036) was 0.64. For the same molecule, the HR (hCV2192261 rs3213646 EXOD1, REC, genotype CT + TT, 95% CL 0.379-0.857, p 0.007) was 0.57, the HR (hCV7425232 rs3900940 MYH15, DOM, genotype CT + CC, 95% CL 0.468-1.102, p 0.1293) was 0.72 and the HR (hCV7425232 rs3900940 MYH15, GEN, genotype CC, 95% CL 0.461-2.296, p 0.9448) was 1.03. It also gave an HR (hCV7425232 rs3900940 MYH15, GEN, genotype CT, 95% CL 0.365-1.022, p 0.0604) of 0.61, an HR (hCV7425232 rs3900940 MYH15, GEN, genotype TT, 95% CL 0.442-1.146, p 0.1618) of 0.71 and an HR (hCV7425232 rs3900940 MYH15, REC, genotype CT + TT, 95% CL 0.467-0.939, p 0.0207) of 0.66. It also gave an HR (hCV11450563 rs2038366, DOM, genotype GT + GG, 95% CL 0.567-1.148, p 0.2334) of 0.81, an HR (hCV11450563 rs2038366, GEN, genotype GG, 95% CL 0.669-1.975, p 0.6132) of 1.15 and an HR (hCV11450563 rs2038366, GEN, genotype GT, 95% CL 0.381-0.986, p 0.0436) of 0.61. The HR (hCV11450563 rs2038366, GEN, genotype TT, 95% CL 0.472-2.724, p 0.7789) was 1.13, the HR (hCV11450563 rs2038366, REC, genotype GT + TT, 95% CL 0.463-1.064, p 0.0954) was 0.7 and the “HR (hazard ratio for stroke, pravastatin vs placebo)” value (adjusted (age, male, current smoking, hypertension, diabetes, BMI, baseline LDL, HDL), mode DOM, genotype GA + GG) was 0.73. For the same molecule, the “HR (hazard ratio for stroke, pravastatin vs placebo)” value (adjusted (age, male, current smoking, hypertension, diabetes, BMI, baseline LDL, HDL), mode GEN, genotype GA) was 0.61, the “HR (hazard ratio for stroke, pravastatin vs placebo)” value (adjusted (age, male, current smoking, hypertension, diabetes, BMI, baseline LDL, HDL), mode GEN, genotype GG) was 1 and the “HR (hazard ratio for stroke, pravastatin vs placebo)” value (adjusted (age, male, current smoking, hypertension, diabetes, BMI, baseline LDL, HDL), mode REC, genotype GA + AA) was 0.69. For the same molecule, the “HR (hazard ratio for stroke, pravastatin vs placebo)” value (unadjusted, mode DOM, genotype AG + AA) was 0.65, the “HR (hazard ratio for stroke, pravastatin vs placebo)” value (unadjusted, mode GEN, genotype AG) was 0.58 and the “HR (hazard ratio for stroke, pravastatin vs placebo)” value (unadjusted, mode GEN, genotype GG) was 0.91. For the same molecule, the “HR (hazard ratio for stroke, pravastatin vs placebo)” value (unadjusted, mode REC, genotype AG + GG) was 0.69, the “EVENTS (number of stroke events)” value (adjusted analysis, mode DOM, genotype GA + GG, total 1131) was 54 and the “EVENTS (number of stroke events)” value (adjusted analysis, mode GEN, genotype AA, total 328) was 18. For the same molecule, the “EVENTS (number of stroke events)” value (adjusted analysis, mode GEN, genotype GA, total 690) was 29, the “EVENTS (number of stroke events)” value (adjusted analysis, mode GEN, genotype GG, total 441) was 25 and the “EVENTS (number of stroke events)” value (unadjusted, mode DOM, genotype AG + AA, total 981) was 44. For the same molecule, the “EVENTS (number of stroke events)” value (unadjusted, mode GEN, genotype AA, total 315) was 17, the “EVENTS (number of stroke events)” value (unadjusted, mode GEN, genotype AG, total 666) was 27 and the “EVENTS (number of stroke events)” value (unadjusted, mode GEN, genotype GG, total 414) was 23. For the same molecule, the “EVENTS (number of stroke events)” value (unadjusted, mode REC, genotype AG + GG, total 1080) was 50, the EVENTS (rs1010 VAMP8, DOM, genotype CT + CC, TOTAL 957) was 43 and the EVENTS (rs1010 VAMP8, GEN, genotype CC, TOTAL 271) was 12. The EVENTS (rs1010 VAMP8, GEN, genotype CT, TOTAL 686) was 31, the EVENTS (rs1010 VAMP8, GEN, genotype TT, TOTAL 455) was 26 and the EVENTS (rs1010 VAMP8, REC, genotype CT + TT, TOTAL 1141) was 57. For the same molecule, the EVENTS (rs89962 KRT4, DOM, genotype TG + TT, TOTAL 912) was 46, the EVENTS (rs89962 KRT4, GEN, genotype GG, TOTAL 443) was 17 and the EVENTS (rs89962 KRT4, GEN, genotype TG, TOTAL 674) was 37. The EVENTS (rs89962 KRT4, GEN, genotype TT, TOTAL 238) was 9, the EVENTS (rs89962 KRT4, REC, genotype TG + GG, TOTAL 1117) was 54 and the EVENTS (rs220479 ITGAE, DOM, genotype CT + CC, TOTAL 1381) was 67. For the same molecule, the EVENTS (rs220479 ITGAE, GEN, genotype CC, TOTAL 973) was 52, the EVENTS (rs220479 ITGAE, GEN, genotype CT, TOTAL 408) was 15 and the EVENTS (rs220479 ITGAE, GEN, genotype TT, TOTAL 46) was 3. It also gave an EVENTS (rs220479 ITGAE, REC, genotype CT + TT, TOTAL 454) of 18, an EVENTS (rs1804689 HPS1, DOM, genotype TG + TT, TOTAL 759) of 40 and an EVENTS (rs1804689 HPS1, GEN, genotype GG, TOTAL 668) of 30. For the same molecule, the EVENTS (rs1804689 HPS1, GEN, genotype TG, TOTAL 652) was 36, the EVENTS (rs1804689 HPS1, GEN, genotype TT, TOTAL 107) was 4 and the EVENTS (rs1804689 HPS1, REC, genotype TG + GG, TOTAL 1320) was 66. The EVENTS (rs2038366, DOM, genotype GT + GG, TOTAL 1177) was 57, the EVENTS (rs2038366, GEN, genotype GG, TOTAL 539) was 29 and the EVENTS (rs2038366, GEN, genotype GT, TOTAL 638) was 28. For the same molecule, the EVENTS (rs2038366, GEN, genotype TT, TOTAL 151) was 10, the EVENTS (rs2038366, REC, genotype GT + TT, TOTAL 789) was 38 and the EVENTS (rs3213646 EXOD1, DOM, genotype CT + CC, TOTAL 1108) was 51.
